Data on 26 compounds can be found in patent US9035085B2, “Aryl ketone compounds and compositions for delivering active agents” (EMISPHERE TECHNOLOGIES, INC., priority 2004, dated 2015).

The experiment in a line: Insulin oral delivery in rats (blood glucose). In kind it is in vivo, Male Sprague-Dawley rats. The conditions noted are these: delivery agent 200 mg/kg with insulin 0.50 mg/kg, 1 ml/kg. From the text: The typical dosing and sampling protocols were as follows.
For `O=C(O)CCC(=O)c1ccc(F)cc1F` [Compound 30], the “% Change in Glucose (from control)” value was −10.5%.
Then `O=C(O)CCCCCC(=O)c1cccc(Oc2ccccc2)c1` [Compound 42], with −13.8%; and `O=C(O)CCC(=O)c1cc(F)ccc1F` [Compound 35], with −11.8%.
On to `COc1ccc(C(=O)CCCCC(=O)O)cc1` [Compound 14], for which the “% Change in Glucose (from control)” value is −2.0%.
Consider `COc1ccc(C(=O)CCC(=O)O)cc1` [Compound 5, 4-(4-Methoxy-phenyl)-4-oxo-butyric acid], for which the “% Change in Glucose (from control)” value was −12.1%.
Regarding `O=C(O)CCC(=O)c1ccccc1` [Compound 1, 4-Oxo-4-phenyl-butyric acid], the “% Change in Glucose (from control)” value is given as −30.7%.
`O=C(O)CCCC(=O)c1ccccc1` [Compound 8]: the “% Change in Glucose (from control)” value is recorded as −1.3%.
With `Cc1ccc(C(=O)CCC(=O)O)cc1` [Compound 38], the “% Change in Glucose (from control)” value is −26.9%.
In the case of `O=C(O)CCC(=O)c1cc(Cl)ccc1Cl` [Compound 22], the “% Change in Glucose (from control)” value was −16.3%.
As to `Cc1ccc(C(=O)CCC(=O)O)cc1C` [Compound 17], the “% Change in Glucose (from control)” value is reported as −9.5%.
With `O=C(O)CCCC(=O)c1ccc(Oc2ccccc2)cc1` [Compound 40] the figure was −3.9%.
As for `O=C(O)CCCCCC(=O)c1ccccc1` [Compound 28], the “% Change in Glucose (from control)” value is −26.4%.
Consider `Cc1cc(C)cc(C(=O)CCCCCCC(=O)O)c1` [Compound 20], for which the “% Change in Glucose (from control)” value is reported as −6.6%.
Consider `Cc1ccc(C(=O)CCCCC(=O)O)cc1C` [Compound 16], for which the “% Change in Glucose (from control)” value is recorded as −25.1%.
Consider `COc1c(C)cc(C(=O)CCCCC(=O)O)cc1C` [Compound 10], for which the “% Change in Glucose (from control)” value was −13.5%.
Then `O=C(O)CCCCC(=O)c1cc(Cl)ccc1Cl` [Compound 21], with −40.8%.
Then `O=C(O)CCCCC(=O)c1cc(F)cc(F)c1` [Compound 37], with −39.0%; and `O=C(O)CCCC(=O)c1ccc(Cl)cc1` [Compound 36], with −31.9%; and `COc1ccccc1C(=O)CCC(=O)O` [Compound 12], with −2.3%.
Turning to `O=C(O)CCCCCCC(=O)c1ccccc1` [Compound 25], the “% Change in Glucose (from control)” value was −20.8%.
With `O=C(O)CCCC(=O)c1cccc(Oc2ccccc2)c1` [Compound 41] the figure was −16.5%.
As for `CCCCCCOc1ccc(C(=O)CCC(=O)O)cc1` [Compound 34], the “% Change in Glucose (from control)” value came out at 9.4%.
Turning to `COc1ccc(C(=O)CCCC(=O)O)cc1` [Compound 6, 5-(4-Methoxy-phenyl)-5-oxo-pentanoic acid], the “% Change in Glucose (from control)” value is listed as −18.3%.
For the compound `Cc1ccc(C)c(C(=O)CCC(=O)O)c1` [Compound 19], the “% Change in Glucose (from control)” value is listed as −28.3%.
Then `CCc1ccc(C(=O)CCC(=O)O)cc1` [Compound 29], with −35.4%.
Consider `Cc1cc(C)cc(C(=O)CCCCC(=O)O)c1` [Compound 23], for which the “% Change in Glucose (from control)” value is −7.5%.
